Results as given in US20240360126A1, “PYRAZOLO[3,4-B]PYRIDINE COMPOUNDS FOR THE TREATMENT OF AUTOIMMUNE DISEASE” (Hoffmann-La Roche Inc., priority 2021, published 2024).

Experiments:
[1] = Human microsome stability assay; assay type: in vitro ADME; settings: 1 μM test compound, 0.5 mg/mL liver microsomal protein, 37° C.
Description: The human microsomal stability assay is used for early assessment of metabolic stability of a test compound in human liver microsomes.
Human liver microsomes (Cat. NO.: 452117, Corning, USA; Cat. NO.:H2610, Xenotech, USA) were preincubated with test compound for 10 minutes at 37° C. in 100 mM potassium phosphate buffer, pH 7.4. The reactions were initiated by adding NADPH regenerating system.
The final incubation mixtures contained 1 μM test compound, 0.5 mg/mL liver microsomal protein, 1 mM MgCl2, 1 mM NADP, 1 unit/mL isocitric dehydrogenase and 6 mM isocitric acid in 100 mM potassium phosphate buffer, pH 7.4. After incubation times of 0, 3, 6, 9, 15 and 30 minutes at 37° C., 300 μL of cold acetonitrile (including internal standard) was added to 100 μL incubation mixture to terminate the reaction. Following precipitation and centrifugation, the amount of compound remaining in the samples were determined by LC-MS/MS. Controls of no NADPH regenerating system at zero and 30 minutes were also prepared and analyzed.

TLR9 = biological target: T1, TLR9 (Homo sapiens, UniProt Q9NR96); test: Human PBMC cell-based assay; parameters: These cells express TLR7, TLR8, or TLR9, and therefore are natural responders to respective ligand stimulation; endogenous in cells; host or cells: human PBMC from healthy donor whole blood; settings: CpG ODN 2216 at 1 μM, read-out: hPBMC/TLR9 IC50
T1 sequence (Q9NR96 26-1032): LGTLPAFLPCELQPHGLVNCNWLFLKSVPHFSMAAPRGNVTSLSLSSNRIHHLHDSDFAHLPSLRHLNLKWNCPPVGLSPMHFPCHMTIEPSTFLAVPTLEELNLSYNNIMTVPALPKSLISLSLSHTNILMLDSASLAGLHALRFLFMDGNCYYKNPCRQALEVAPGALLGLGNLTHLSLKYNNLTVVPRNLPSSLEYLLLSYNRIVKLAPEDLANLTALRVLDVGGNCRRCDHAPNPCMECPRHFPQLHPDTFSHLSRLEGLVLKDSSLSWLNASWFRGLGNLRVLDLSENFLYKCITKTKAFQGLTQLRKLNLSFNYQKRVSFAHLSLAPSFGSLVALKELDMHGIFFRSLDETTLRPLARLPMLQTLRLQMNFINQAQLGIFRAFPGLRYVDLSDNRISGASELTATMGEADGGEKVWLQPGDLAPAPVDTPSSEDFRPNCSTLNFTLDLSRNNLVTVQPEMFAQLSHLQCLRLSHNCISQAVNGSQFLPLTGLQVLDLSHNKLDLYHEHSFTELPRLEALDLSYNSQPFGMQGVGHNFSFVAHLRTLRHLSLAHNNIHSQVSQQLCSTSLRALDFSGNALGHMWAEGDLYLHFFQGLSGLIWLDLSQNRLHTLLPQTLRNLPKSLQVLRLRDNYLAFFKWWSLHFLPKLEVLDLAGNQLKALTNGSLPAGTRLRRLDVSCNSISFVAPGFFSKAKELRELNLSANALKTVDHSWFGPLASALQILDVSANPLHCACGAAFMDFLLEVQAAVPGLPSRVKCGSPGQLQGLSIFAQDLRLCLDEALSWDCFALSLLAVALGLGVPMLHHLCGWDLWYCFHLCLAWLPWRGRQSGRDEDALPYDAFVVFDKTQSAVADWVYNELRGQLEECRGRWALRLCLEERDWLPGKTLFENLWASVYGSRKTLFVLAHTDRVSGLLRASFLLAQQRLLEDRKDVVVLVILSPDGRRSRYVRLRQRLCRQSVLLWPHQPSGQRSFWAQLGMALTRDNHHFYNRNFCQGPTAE
Excerpt: Unlike the HEK reporter cell lines, human peripheral blood mononuclear cell (PBMC) represents primary human immune cells in blood mainly consisting of lymphocytes, monocytes, and dendritic cells. These cells express TLR7, TLR8, or TLR9, and therefore are natural responders to respective ligand stimulation. Upon activation of these TLRs, PBMCs secrete similar cytokines and chemokines in vitro and in vivo, and therefore the in vitro potency of a TLR7/8/9 antagonist in human PBMC is readily translatable to its pharmacodynamics response in vivo.
Human peripheral blood mononuclear cells (PBMC) were isolated from freshly-drawn lithium-heparinized (Lithium Heparin Plus blood Collection tube, BD Vacutainer®) healthy donor whole blood by density gradient (Ficoll-Paque™ PLUS, GE Healthcare life Sciences). Briefly, […] was diluted with 25 mL PBS (without Ca^2+, Mg^2+) in a 50 mL conical tube with porous barrier (Leucosep tube, Greiner bio-one), where 15.5 mL Ficoll-Paque was under laid after spinning. Tubes were centrifuged for 20 minutes at 800×g (1946 rpm) with the brake in the off position, and PBMC were collected from the buffy coat. Cells were then washed twice in PBS, and red blood cells were lysed by suspension in 2 mL (Red Blood Cell Lysis Buffer, Alfa Aesar) for 5-10 minutes at room temperature. After a final wash in PBS, PBMC were resuspended at a final concentration of 2×10^6 cells/mL in RPMI-1640 media with GlutaMAX™ (Gibco) supplemented with 10% Fetal Bovine Serum (Sigma) and plated at 150 μL/well (3×10^5 cells/well) in tissue culture treated round bottom 96-well plates (Corning Incorporated). Antagonist compounds (compounds of this invention) solubilized and serial diluted in 100% DMSO were added in duplicate to cells to yield a final concentration of 1% DMSO (v/v). PBMC were incubated with antagonist compounds for 30 minutes at 37° C., 5% CO2 before adding various TLR agonist reagents in 48 μL complete media per well as follows (final concentrations indicated): CpG ODN 2216 (InvivoGen) at 1 μM for TLR9, ORN 06/LyoVec (InvivoGen) at […] for TLR8 and R848 (InvivoGen) at 1 μg/mL for TLR7 and TLR8. PBMC were incubated overnight at 37° C. with 5% C02. Cell culture supernatants were collected, and levels of various human cytokines were assessed by Luminex assay (ProcartaPlex™ Multiplex Immunoassay, Invitrogen) or ELISA procedure according to the manufacturer's recommended protocol (eBioscience, ThermoFisher Scientific). Viability of the cells was also checked with Cell Viability Assay (CellTiter Glo® Luminescent Cell Viability Assay, Promega).

| Clearance of Human microsome [1] [mL/min/kg] | IC50 (TLR9) [nM] | SMILES |
| --- | --- | --- |
| 6.2 | 520 | Cc1cc(N2CC[C@@H](c3ncc(N4CCOC[C@@H](N)C4)cc3C)[C@H](C)C2)c2cnn(C)c2n1 [Example 28, (6S)-4-[6-[(3S,4R)-1-(1,6-dimethylpyrazolo[3,4-b]pyridin-4-yl)-3-methyl-4-piperidyl]-5-methyl-3-pyridyl]-1,4-oxazepan-6-amine] |
| 6.8 | 710 | COC[C@H]1CN(c2cnc([C@@H]3CCN(c4cc(C)nc5c4cnn5C)C[C@H]3C)c(C)c2)CCN1 [Example 29, 4-[(3S,4R)-4-[5-[(3R)-3-(methoxymethyl)piperazin-1-yl]-3-methyl-2-pyridyl]-3-methyl-1-piperidyl]-1,6-dimethyl-pyrazolo[3,4-b]pyridine] |
| 8.8 | 320 | Cc1cc(N2CC[C@@H](c3ncc(N4CC(C)(N)C4)cc3C)[C@H](C)C2)c2cnn(C)c2n1 [Example 32, 1-[6-[(3S,4R)-1-(1,6-dimethylpyrazolo[3,4-b]pyridin-4-yl)-3-methyl-4-piperidyl]-5-methyl-3-pyridyl]-3-methyl-azetidin-3-amine] |
| 6.2 | 146 | Cc1cc(N2CC[C@@H](c3ncc(N4C[C@H]5NCCO[C@@H]5C4)cc3C)[C@H](C)C2)c2cnn(C)c2n1 [Example 33, (4aR,7aR)-6-[6-[(3S,4R)-1-(1,6-dimethylpyrazolo[3,4-b]pyridin-4-yl)-3-methyl-4-piperidyl]-5-methyl-3-pyridyl]-3,4,4a,5,7,7a-hexahydro-2H-pyrrolo[3,4-b][1,4]oxazine] |
| 6.2 | 870 | Cc1cc(N2CC[C@H](c3ccc(N4CCNCC4)cn3)[C@@H](C)C2)c2cnn(C)c2n1 [Example 35, 1,6-dimethyl-4-[(3R,4S)-3-methyl-4-(5-piperazin-1-yl-2-pyridyl)-1-piperidyl]pyrazolo[3,4-b]pyridine] |
| 8.1 | 540 | Cc1cc(N2CC[C@H](c3ccc(N4CCOC[C@@H](N)C4)cn3)[C@@H](C)C2)c2cnn(C)c2n1 [Example 40, (6S)-4-[6-[(3R,4S)-1-(1,6-dimethylpyrazolo[3,4-b]pyridin-4-yl)-3-methyl-4-piperidyl]-3-pyridyl]-1,4-oxazepan-6-amine] |
| 6.5 | 470 | Cc1cc(N2CC[C@H](c3ccc(N4CC(C)(N)C4)cn3)[C@@H](C)C2)c2cnn(C)c2n1 [Example 43, 1-[6-[(3R,4S)-1-(1,6-dimethylpyrazolo[3,4-b]pyridin-4-yl)-3-methyl-4-piperidyl]-3-pyridyl]-3-methyl-azetidin-3-amine] |
